Consider four compounds from patent US12059472B2 (Bayer Aktiengesellschaft, priority 2016, dated 2024).

pIC50: −log10 of the molar value. Entries after “also recorded” stand apart in the source; their conditions may differ. Where a name gives a salt, the structure may show the parent alone.

The nature of data set [1]: Stability in rat liver lysosomes. The note with it: rat liver lysosomal extract, 37° C.; for extent of cleavage in the lysosomal stability assay: within 24 h. The class given is in vitro ADME. The procedure:
To determine the lysosomal stability of compounds RM-A and RM-B, lysosomal enzymes were isolated from rat liver cells. Compounds A and B were each added to this lysosomal extract in order to examine stability under lysosomal conditions. The proteolytic enzyme legumain is expressed only in a very small amount, if any, in rat liver lysosomes (Chen, J-M. et al 1997). To monitor the enzymatic activity of the lysosomal enzymes, a cathepsin-specific substrate was added.
First of all, a fresh rat liver was removed, weighed and immediately placed on ice in homogenization medium (0.25 M sucrose, 1 mM EDTA, 10 mM HEPES, pH7). The liver was comminuted and a change of medium was undertaken. The rat livers were homogenized with 4 times the amount of the rat liver weight at 750 rpm in a Potter (B. Braun). The homogenate was centrifuged at 1000 g for 10 min and the supernatant was filtered. In the next step, with the aid of an ultracentrifuge, the “light mitochondrial fraction” (LMF) was centrifuged out of the supernatant at 26 500 g over 20 min. Also present in the pellet apart from mitochondria are the lysosomes. The supernatant was discarded and the pellet was resuspended with 0.8 ml/g of homogenization medium.
The sucrose was added from a 2.3 M stock solution of the particular percentage. 2.5 ml of isolated LMF were additionally added to the density stage with a sucrose content of 19%. Subsequently, the density stages were layered one on top of another in 10 ml centrifuge tubes and centrifuged at 48 500 g for 17 h. […] To monitor the lysis, the protein content of the lysed lysosomal fraction was monitored with the aid of a BCA assays (Pierce BCA protein assay kit).
To examine the lysosomal stability of compounds RM-A and RM-B, 6 μl of a 100 μg/ml stock solution (9 acetonitrile/1 DMSO) were added to 290 μl of 90 mM citrate buffer and 300 μl of lysosomal extract and incubated at 37° C. on an Eppendorf shaker. […] For the RP-HPLC LCMS analysis, the samples were diluted with 300 μl of 10 mM ammonium acetate buffer (pH 6.8) and analysed.

In a further data set the target is legumain (Homo sapiens (Human), UniProt Q99538). Briefly: Legumain assay (cleavage of prodrug). The class given is biochemical. The settings on record: pH 5.0; for half-life: human, recombinant human legumain, rh legumain 1 ng/μl, 50 mM MES, 250 mM NaCl, read-out: half-life of cleavage to the target compound in the legumain assay (converted). On the procedure:
The legumain assay was conducted with recombinant human enzyme. The rh legumain enzyme solution (catalogue #2199-CY, R&D Systems) was diluted to the desired concentration in 50 mM Na acetate buffer/100 mM NaCl, pH4.0 and preincubated at 37° C. for 2 h. rh legumain was then adjusted to a final concentration of 1 ng/μl in 50 mM MES buffer, 250 mM NaCl, pH 5.0. For every legumain-cleavable prodrug to be examined, a mixture was made up in a micro reaction vessel (0.5 ml, from Eppendorf). For this purpose, the substrate solution was adjusted to the desired concentration (double concentration) with 50 mM MES buffer, 250 mM NaCl, pH 5.0. For the kinetic measurement of the enzymatic reaction, 250 μl of the legumain solution were first initially charged and the enzyme reaction was started by adding 250 μl of the substrate solution (final concentration: single concentration). At different times, 50 μl samples were taken. This sample was admixed immediately with 100 μl of ice-cold methanol in order to stop the enzymatic reaction and then frozen at −20° C. The times selected for sampling were after 0.5 h, 1 h, 3 h and 24 h. The samples were then analysed by means of RP-HPLC analysis and by LC-MS analysis. The determination of the toxophore released enabled the determination of the half-life t1/2 of the enzymatic reaction (FIG. 1).

A further data set relates to Caco-2 cells. The data set can be described thus: Caco-2 flux assay for cell permeability. Type of data set: in vitro ADME. On the procedure:
The cell permeability of a substance can be investigated by means of in vitro testing in a flux assay using Caco-2 cells [M. D. Troutman and D. R. Thakker, Pharm. […] For this purpose, the cells were cultured for 15-16 days on 24-well filter plates. For the determination of permeation, the respective test substance was applied in a HEPES buffer to the cells either apically (A) or basally (B) and incubated for 2 hours. After 0 hours and after 2 hours, samples were taken from the cis and trans compartments. The samples were separated by HPLC (Agilent 1200, Böblingen, Germany) using reverse phase columns. The HPLC system was coupled via a Turbo Ion Spray Interface to a Triple Quadropol mass spectrometer API 4000 (AB SCIEX Deutschland GmbH, Darmstadt, Germany).
Of critical importance for toxophors which are released intracellularly is the permeability from B to A [Papp (B-A)] and the ratio of Papp (B-A) to Papp (A-B) (efflux ratio): the lower this permeability, the slower the active and passive transport processes of the substance through the monolayer of Caco-2 cells.
For orientation: Caco-2 monolayers are a common model of the intestinal barrier.

Data set [2] deals with human kinesin spindle protein KSP/Eg5 (Homo sapiens (Human), UniProt P52732). The data set can be described thus: Inhibition of the kinesin spindle protein KSP/Eg5 (ATPase, malachite green). The note with it: Table 2; active metabolites; 10 nM KSP motor domain, 500 μM ATP. Type of data set: biochemical. The procedure:
The motor domain of the human kinesin spindle protein KSP/Eg5 (tebu-bio/Cytoskeleton Inc, No. 027EG01-XL) was incubated in a concentration of 10 nM with microtubuli (bovine or porcine, tebu-bio/Cytoskeleton Inc) stabilized with 50 μg/ml taxol (Sigma No. T7191-5MG) for 5 min at RT in 15 mM PIPES, pH 6.8 (5 mM MgCl2 and 10 mM DTT, Sigma). […] Incubation was at RT for 2 h. ATPase activity was detected by detecting the inorganic phosphate formed using malachite green (Biomol). […] The positive controls used were monastrol (Sigma, M8515-1 mg) and ispinesib (AdooQ Bioscience A10486). The individual data of the dose-activity curve are eight-fold determinations. The IC50 values are means of two independent experiments.

legumain, sequence (Q99538 18-323): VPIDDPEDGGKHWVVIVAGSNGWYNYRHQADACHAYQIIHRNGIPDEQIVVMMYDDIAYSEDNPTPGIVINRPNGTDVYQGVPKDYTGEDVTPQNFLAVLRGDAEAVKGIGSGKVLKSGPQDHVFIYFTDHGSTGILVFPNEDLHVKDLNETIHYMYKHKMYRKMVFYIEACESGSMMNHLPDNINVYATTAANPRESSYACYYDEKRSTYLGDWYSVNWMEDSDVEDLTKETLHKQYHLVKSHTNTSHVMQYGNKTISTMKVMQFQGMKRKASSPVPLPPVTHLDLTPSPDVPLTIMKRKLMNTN
human kinesin spindle protein KSP/Eg5, sequence (P52732 18-359): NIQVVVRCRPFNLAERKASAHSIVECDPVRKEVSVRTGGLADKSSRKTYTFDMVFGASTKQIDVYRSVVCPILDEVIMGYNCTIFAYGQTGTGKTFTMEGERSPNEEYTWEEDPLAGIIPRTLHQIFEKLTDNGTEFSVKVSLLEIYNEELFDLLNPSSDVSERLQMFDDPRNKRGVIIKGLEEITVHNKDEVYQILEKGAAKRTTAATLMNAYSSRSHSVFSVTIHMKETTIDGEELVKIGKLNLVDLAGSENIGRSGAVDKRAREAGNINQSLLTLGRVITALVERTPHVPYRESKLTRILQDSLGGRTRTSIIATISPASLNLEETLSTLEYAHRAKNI

Consider `CNC(=O)[C@H](CCN(C(=O)CO)[C@@H](c1cc(-c2cc(F)ccc2F)cn1Cc1ccccc1)C(C)(C)C)NC(=O)[C@H](CC(N)=O)NC(=O)Cc1ccncc1` [RM-B, N^1-[(2S)-4-[{(1R)-1-[1-Benzyl-4-(2,5-difluorophenyl)-1H-pyrrol-2-yl]-2,2-dimethylpropyl}(glycoloyl)amino]-1-(methylamino)-1-oxobutan-2-yl]-N^2-(pyridin-4-ylacetyl)-L-aspartamide], for which the “extent of cleavage in the lysosomal stability assay” value in data set [1] was determined as 13%. For the same compound, the half-life (usually the time in which the quantity being followed falls by half) at legumain is about 10 h.

On to `CC(C)(C)[C@H](c1cc(-c2cc(F)ccc2F)cn1Cc1ccccc1)N(CC[C@H](N)C(=O)NCCNC(=O)[C@@H](CCC(=O)O)NC(=O)CNC(=O)[C@H](CC(=O)O)SC[C@H](N)C(=O)O)C(=O)CO` [Example M2, trifluoroacetic acid salt], for which the “transport from the cell and efflux ratio (in words)” value with Caco-2 cells (Caco-2) is “very low level of transport from the cell and a low efflux ratio”. For the same compound, the “Papp (B-A)” value with Caco-2 cells (Caco-2, basal to apical, 2 hours) came out at 0.11 ×10⁻⁶ cm/s. Further, the Efflux ratio with Caco-2 cells (Caco-2, ratio of Papp (B-A) to Papp (A-B)) is listed as 1.6. In addition, the negative logarithm of the IC50 (pIC50) (usually the negative decadic logarithm of the IC50, by convention in mol/L) in data set [2] is 9.33.

`CNC(=O)[C@H](CCN(C(=O)CO)[C@@H](c1cc(-c2cc(F)ccc2F)cn1Cc1ccccc1)C(C)(C)C)NC(=O)[C@H](CCC(N)=O)NC(=O)Cc1ccncc1` [RM-C, N^1-[(2S)-4-[{(1R)-1-[1-Benzyl-4-(2,5-difluorophenyl)-1H-pyrrol-2-yl]-2,2-dimethylpropyl}(glycoloyl)amino]-1-(methylamino)-1-oxobutan-2-yl]-N^2-(pyridin-4-ylacetyl)-L-glutamide]: the “cleavage by legumain (in words)” value at legumain (rh legumain) is given as “not cleaved; also recorded: not possible to show any cleavage by legumain”.

In the case of `CNC(=O)[C@H](CCN(C(=O)CO)[C@@H](c1cc(-c2cc(F)ccc2F)cn1Cc1ccccc1)C(C)(C)C)NC(=O)[C@H](CC(N)=O)NC(=O)[C@H](C)NC(=O)[C@H](C)NC(=O)Cc1ccncc1` [RM-A, N-(Pyridin-4-ylacetyl)-L-alanyl-L-alanyl-N^1-[(2S)-4-[{(1R)-1-[1-benzyl-4-(2,5-difluorophenyl)-1H-pyrrol-2-yl]-2,2-dimethylpropyl}(glycoloyl)amino]-1-(methylamino)-1-oxobutan-2-yl]-L-aspartamide], in data set [1], the half-life at 1 µg/ml is about 6 h and the “extent of cleavage in the lysosomal stability assay” value is listed as “about 80%”. For the same compound, at legumain, the half-life was 0.2 h.
